{"source": "patent US7183112B2", "about": "“Uses for anti-malarial therapeutic agents” (APT Pharmaceuticals, LLC, priority 1999, dated 2007)", "system": "Ascaris-sensitized sheep", "assay": "Antigen-induced specific lung resistance (baseline, peak EAR, peak LAR), Example 3", "type": "in vivo", "settings": "for EAR (peak, largest specific lung resistance 0–4 h) / LAR (peak, largest specific lung resistance 5–8 h): mean ± SE, n = 3 sheep", "excerpt": "All procedures were approved by the Mount Sinai Medical Center Animal Research Committee, which is responsible for assuring the humane care and use of experimental animals. […] During the chronic treatment trail, venous blood samples were obtained from the external jugular vein for the determination of plasma compound concentrations. Samples were obtained as baseline (pre-dosing), and, then, before dosing on days 8, 15, 22, 29 and after dosing had stopped on day 43. Measurement of Airway Mechanics: The unsedated sheep were restrained in a cart in the prone position with their heads immobilized. After topical anesthesia of the nasal passages with 2%-lidocaine solution, a balloon catheter was advanced through one nostril into the lower esophagus. The animals were […] with a cuffed endotracheal tube through the other nostril using a flexible fiberoptic bronchoscope as a guide. (The cuff of the endotracheal tube was inflated only for the measurement of airway mechanics and during aerosol challenges to prevent undue discomfort. This procedure has no-effect on airway mechanics). Pleural pressure was estimated with the esophageal balloon catheter (filled with one ml of air) which was positioned 5–10 cm from the gastroesophageal junction. In this position, the end expiratory pleural pressure ranged between -2 and -5 cm H2O. Once the balloon was placed, it was secured so that it remained in position for the duration of the experiment. Lateral pressure in the trachea was measured with a sidehole catheter (inner dimension, 2.5 mm) advanced through and positioned distal to the tip of the endotracheal tube. Transpulmonary pressure, the difference between tracheal and pleural pressure, was measured with a differential pressure transducer catheter system. For the measurement of pulmonary resistance (RL), the proximal end of the endotracheal tube was connected to a pneumotachograph. The signals of flow and transpulmonary pressure were recorded on a n oscilloscope recorder which was linked to a computer for on-line calculation of RL from transpulmonary pressure, respiratory volume (obtained by digital integration) and flow. Analysis of 5–10 breaths were used for the determination of RL. Immediately after the measurements of RL, thoracic gas volume (Vtg) was measured in a constant volume body plethysmograph to obtain specific lung resistance (SRL=RL·Vtg) in cm H2O·sec^−1. Aerosol Delivery Systems: Aerosols of Ascaris suum extract (diluted 20:1 with phosphate buffered saline; 82,000 PNU/ml) were generated using a disposable medical nebulizer (Raindrop^R, Puritan Bennett), which produces an aerosol with a mass median aerodynamic diameter of 3.2 μm (geometric standard deviation, 1.9) as determined by a 7 stage Andersen cascade impactor. The output from the nebulizer was directed into a plastic T-piece, one end of which was connected to the inspiratory port of a Harvard respirator. To better control aerosol delivery, a dosimeter consisting of a solenoid valve and a source of compressed air (20 psi) was activated at the beginning of the inspiratory cycle of the Harvard respirator system for 1 second. The aerosol was delivered at a tidal volume of 500 ml and a rate of 20 breaths per minute for 20 minutes. Each sheep was challenged with an equivalent dose of antigen (400 breaths) in the control and drug trials. Carbachol aerosols were also generated with this same nebulizer system. The same basic protocol was used for all studies in Example 3. This basic protocol consisted of first obtaining baseline dose response curves to aerosol carbachol 1–3 days prior to antigen challenge. Then, on the day of antigen challenge, values of specific lung resistance (SRL) were measured at baseline and, then, 30 min after drug or vehicle (0.9% saline) treatment. The animals were, then, challenged with Ascaris suum antigen and SRL was remeasured immediately after challenge, hourly from 1–6 h after challenge and on the half-hour from 6 ½–8 h after challenge. […]", "key": {"[1]": {"settings": "No Treatment 14d after stopping aerosol 2 mg/kg/d x 28 d"}, "[2]": {"settings": "No Treatment 28d after stopping aerosol 2 mg/kg/d x 28 d"}, "[3]": {"settings": "aerosol 0.2 mg/kg once a day x 4 d"}, "[4]": {"settings": "aerosol 0.6 mg/kg once a day x 4 d"}, "[5]": {"settings": "aerosol 1 mg/kg twice a day for 4 days"}, "[6]": {"settings": "aerosol 1 mg/kg twice a day x 4 d"}, "[7]": {"settings": "aerosol 2 mg/kg once a day for 4 days"}, "[8]": {"settings": "aerosol 2 mg/kg once a day x 4 d"}, "[9]": {"settings": "aerosol 2 mg/kg once a day x 14 d"}, "[10]": {"settings": "aerosol 2 mg/kg once a day x 28 d"}, "[11]": {"settings": "chronic treatment, aerosol 2 mg/kg once a day for up to 4 weeks"}, "[12]": {"settings": "dose response, aerosol 0.2, 0.6 and 2 mg/kg once a day for 4 days"}, "[13]": {"settings": "p.o. 1 mg/kg twice a day for 4 days"}}, "note": "Where “and” joins values, the source holds several entries; their conditions need not be identical. Identical values can stand only once. Marks after values point to notes of the source that are not given here.", "data": [{"compound": "CCN(CCO)CCCC(C)Nc1ccnc2cc(Cl)ccc12", "note": "(stereo not drawn) [HCQ, hydroxychloroquine]", "values": [{"measurement": "effect on LAR and AHR after stopping treatment", "setting": "2 weeks after stopping 4 weeks aerosol 2 mg/kg once a day", "value": "carryover effect"}, {"measurement": "response to allergen after stopping treatment", "setting": "2 weeks after stopping aerosol 1 mg/kg twice a day for 4 days", "value": "responded normally"}, {"measurement": "response to allergen after stopping treatment", "setting": "2 weeks after stopping aerosol 2 mg/kg once a day for 4 days", "value": "responded normally"}, {"measurement": "animals' responses after stopping treatment", "setting": "4 weeks after stopping 4 weeks aerosol 2 mg/kg once a day", "value": "returned to normal"}, {"measurement": "EAR (peak, largest specific lung resistance 0–4 h)", "setting": "[1]", "value": "4.17 ± 1.70", "unit": "cmH2O.sec^−1"}, {"measurement": "LAR (peak, largest specific lung resistance 5–8 h)", "setting": "[1]", "value": "1.69 ± 0.21", "unit": "cmH2O.sec^−1"}, {"measurement": "EAR (peak, largest specific lung resistance 0–4 h)", "setting": "[2]", "value": "4.35 ± 0.74", "unit": "cmH2O.sec^−1"}, {"measurement": "LAR (peak, largest specific lung resistance 5–8 h)", "setting": "[2]", "value": "2.69 ± 0.26^h cmH2O.sec^−1"}, {"measurement": "EAR (peak, largest specific lung resistance 0–4 h)", "setting": "[3]", "value": "3.95 ± 0.47", "unit": "cmH2O.sec^−1"}, {"measurement": "LAR (peak, largest specific lung resistance 5–8 h)", "setting": "[3]", "value": "2.22 ± 0.17^h cmH2O.sec^−1"}, {"measurement": "overall protective effect", "setting": "aerosol 0.6 mg/kg once a day for 4 days", "value": "significant protective effects"}, {"measurement": "EAR (peak, largest specific lung resistance 0–4 h)", "setting": "[4]", "value": "3.19 ± 0.51", "unit": "cmH2O.sec^−1"}, {"measurement": "LAR (peak, largest specific lung resistance 5–8 h)", "setting": "[4]", "value": "1.30 ± 0.18^f cmH2O.sec^−1"}, {"measurement": "effect on early airway response (EAR)", "setting": "[5]", "value": "no effect"}, {"measurement": "effect on late airway response (LAR)", "setting": "[5]", "value": "blocked"}, {"measurement": "EAR (peak, largest specific lung resistance 0–4 h)", "setting": "[6]", "value": "5.57 ± 1.82", "unit": "cmH2O.sec^−1"}, {"measurement": "LAR (peak, largest specific lung resistance 5–8 h)", "setting": "[6]", "value": "1.35 ± 0.15^d,e cmH2O.sec^−1"}, {"measurement": "effect on EAR", "setting": "[7]", "value": "no effect"}, {"measurement": "effect on LAR", "setting": "[7]", "value": "blocked"}, {"measurement": "EAR (peak, largest specific lung resistance 0–4 h)", "setting": "[8]", "value": "3.5 ± 0.73 cmH2O.sec^−1 and 3.53 ± 0.73 cmH2O.sec^−1"}, {"measurement": "LAR (peak, largest specific lung resistance 5–8 h)", "setting": "[8]", "value": "1.34 ± 0.32^d,e cmH2O.sec^−1 and 1.34 ± 0.03^d cmH2O.sec^−1"}, {"measurement": "EAR (peak, largest specific lung resistance 0–4 h)", "setting": "[9]", "value": "4.21 ± 1.68", "unit": "cmH2O.sec^−1"}, {"measurement": "LAR (peak, largest specific lung resistance 5–8 h)", "setting": "[9]", "value": "0.78 ± 0.39^f cmH2O.sec^−1"}, {"measurement": "EAR (peak, largest specific lung resistance 0–4 h)", "setting": "[10]", "value": "4.21 ± 1.16", "unit": "cmH2O.sec^−1"}, {"measurement": "LAR (peak, largest specific lung resistance 5–8 h)", "setting": "[10]", "value": "1.22 ± 0.08^d cmH2O.sec^−1"}, {"measurement": "effect on EAR", "setting": "[11]", "value": "no effect"}, {"measurement": "effect on LAR", "setting": "[11]", "value": "block"}, {"measurement": "effect on EAR", "setting": "[12]", "value": "no effect"}, {"measurement": "effect on LAR", "setting": "[12]", "value": "blocked"}, {"measurement": "effect on antigen-induced EAR", "setting": "[13]", "value": "did not protect"}, {"measurement": "effect on antigen-induced LAR", "setting": "[13]", "value": "did not protect"}, {"measurement": "EAR (peak, largest specific lung resistance 0–4 h)", "setting": "p.o. 1 mg/kg twice a day x 4 d", "value": "4.64 ± 0.55", "unit": "cmH2O.sec^−1"}, {"measurement": "LAR (peak, largest specific lung resistance 5–8 h)", "setting": "p.o. 1 mg/kg twice a day x 4 d", "value": "2.27 ± 0.10", "unit": "cmH2O.sec^−1"}]}]}
